Data: patent publication US20230108049A1, “ORAL FAST-DISPERSING DOSAGE FORM OF RIMEGEPANT” (BIOHAVEN PHARMACEUTICAL HOLDING COMPANY LTD., priority 2020, published 2023)

Legend:
pregnant rats = assay: Embryofetal development study, oral administration during organogenesis, rats; assay type: in vivo, rat
Procedure: Plasma exposures (AUC) at the no-effect dose (60 mg/kg/day) for adverse effects on embryofetal development were approximately 45 times that in humans at the maximum recommended human dose (MRHD) of 75 mg/day.

healthy volunteers = assay: Resting blood pressure on concomitant administration with sumatriptan; assay type: in vivo, human; details: with sumatriptan 12 mg subcutaneous vs sumatriptan alone
Description: The relationship between pharmacodynamic activity and the mechanism(s) by which rimegepant exerts its clinical effects is unknown.

Plasma protein binding = assay type: in vitro ADME
Description: The steady state volume of distribution of rimegepant is 120 L. Plasma protein binding of rimegepant is approximately 96%.

[1] = Dedicated clinical study, pharmacokinetics in renal impairment; assay type: in vivo, human
Procedure: In a dedicated clinical study comparing the pharmacokinetics of rimegepant in subjects with mild (estimated creatinine clearance [CLcr] 60-89 mL/min), moderate (CLcr 30-59 mL/min), and severe (CLcr 15-29 mL/min) renal impairment to that with normal subjects (healthy matched control), the exposure of rimegepant following single 75 mg dose was approximately 40% higher in subjects with moderate renal impairment. […] NURTEC ODT has not been studied in patients with end-stage renal disease (CLcr<15 mL/min) [see Use in Specific Populations].

CYP1A2 = CYP1A2 (Homo sapiens, UniProt P05177); assay: In vitro enzyme inhibition; assay type: in vitro ADME; details: at clinically relevant concentrations
Description: (§1) Rimegepant is a substrate of CYP3A4 and CYP2C9 [see In Vivo Studies].

CYP2B6 = CYP2B6 (Homo sapiens, UniProt P20813); assay: In vitro enzyme inhibition; assay type: in vitro ADME; details: at clinically relevant concentrations
CYP2B6, sequence (P20813 whole entry): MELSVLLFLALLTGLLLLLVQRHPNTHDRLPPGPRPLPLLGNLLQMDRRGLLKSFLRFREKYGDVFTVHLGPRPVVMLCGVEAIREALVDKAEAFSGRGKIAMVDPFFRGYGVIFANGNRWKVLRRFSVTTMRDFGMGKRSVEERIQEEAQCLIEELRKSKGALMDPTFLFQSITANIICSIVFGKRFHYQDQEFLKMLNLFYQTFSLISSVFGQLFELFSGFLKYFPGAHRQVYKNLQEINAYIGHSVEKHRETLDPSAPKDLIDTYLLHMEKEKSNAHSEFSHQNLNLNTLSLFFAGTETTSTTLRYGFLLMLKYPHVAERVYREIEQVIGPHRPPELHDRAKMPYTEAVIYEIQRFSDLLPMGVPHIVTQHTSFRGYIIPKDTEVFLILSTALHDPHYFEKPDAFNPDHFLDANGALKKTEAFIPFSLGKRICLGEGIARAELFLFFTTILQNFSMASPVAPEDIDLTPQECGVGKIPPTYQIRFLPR
Description: as §1

CYP2C19 = CYP2C19 (Homo sapiens, UniProt P33261); assay: In vitro enzyme inhibition; assay type: in vitro ADME; details: at clinically relevant concentrations
Description: as §1

CYP2C9 = CYP2C9 (Homo sapiens, UniProt P11712); assay: In vitro enzyme inhibition; assay type: in vitro ADME; details: at clinically relevant concentrations
Description: as §1

CYP2D6 = CYP2D6 (Homo sapiens, UniProt P10635); assay: In vitro enzyme inhibition; assay type: in vitro ADME; details: at clinically relevant concentrations
Description: as §1

CYP3A4 [2] = biological target: T1, CYP3A4 (Homo sapiens, UniProt P08684); assay: In vitro enzyme inhibition; assay type: in vitro ADME
T1 sequence (P08684 whole entry): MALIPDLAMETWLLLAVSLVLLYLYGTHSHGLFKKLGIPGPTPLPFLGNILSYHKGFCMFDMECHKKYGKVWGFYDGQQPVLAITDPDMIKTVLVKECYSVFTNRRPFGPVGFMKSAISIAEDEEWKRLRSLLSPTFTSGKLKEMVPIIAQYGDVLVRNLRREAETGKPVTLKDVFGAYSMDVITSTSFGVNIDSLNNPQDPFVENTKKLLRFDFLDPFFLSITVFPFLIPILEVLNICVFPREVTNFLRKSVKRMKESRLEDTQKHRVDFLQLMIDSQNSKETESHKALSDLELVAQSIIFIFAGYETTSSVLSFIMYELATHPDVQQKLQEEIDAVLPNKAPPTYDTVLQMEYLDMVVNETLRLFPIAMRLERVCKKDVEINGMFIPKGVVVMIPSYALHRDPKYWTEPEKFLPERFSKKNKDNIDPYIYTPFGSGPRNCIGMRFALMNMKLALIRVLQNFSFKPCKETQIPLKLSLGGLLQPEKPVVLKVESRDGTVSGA
Description: as §1

UGT1A1 = UGT1A1 (Homo sapiens, UniProt P22309); assay: In vitro enzyme inhibition; assay type: in vitro ADME; details: at clinically relevant concentrations
Description: as §1

BCRP = BCRP (Homo sapiens, UniProt Q9UNQ0); assay: In vitro transporter substrate study; assay type: in vitro ADME
BCRP, sequence (Q9UNQ0 whole entry): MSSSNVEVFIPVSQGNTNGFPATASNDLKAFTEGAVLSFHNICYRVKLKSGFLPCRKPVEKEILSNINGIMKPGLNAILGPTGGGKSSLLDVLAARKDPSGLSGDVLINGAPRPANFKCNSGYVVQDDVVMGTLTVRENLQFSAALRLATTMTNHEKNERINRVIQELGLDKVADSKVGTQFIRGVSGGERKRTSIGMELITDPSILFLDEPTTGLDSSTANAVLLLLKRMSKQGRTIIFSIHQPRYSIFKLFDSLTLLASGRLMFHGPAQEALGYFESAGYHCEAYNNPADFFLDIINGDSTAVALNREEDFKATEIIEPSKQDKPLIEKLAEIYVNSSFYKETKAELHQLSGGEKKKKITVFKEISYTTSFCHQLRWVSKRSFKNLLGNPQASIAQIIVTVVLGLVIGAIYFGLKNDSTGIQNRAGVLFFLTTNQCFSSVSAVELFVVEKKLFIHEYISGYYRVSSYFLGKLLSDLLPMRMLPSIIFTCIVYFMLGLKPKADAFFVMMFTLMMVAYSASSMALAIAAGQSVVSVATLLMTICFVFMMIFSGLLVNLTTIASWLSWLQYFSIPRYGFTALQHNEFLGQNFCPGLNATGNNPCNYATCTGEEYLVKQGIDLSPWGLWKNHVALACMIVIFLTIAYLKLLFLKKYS
Procedure: (§2) Rimegepant is a substrate of P-gp and BCRP. Concomitant administration of inhibitors of P-gp or BCRP may increase the exposure of rimegepant [see Drug Interactions]. No dedicated drug interaction study was conducted to assess their effects on the pharmacokinetics of rimegepant.

P-gp = P-gp (Homo sapiens, UniProt P08183); assay: In vitro transporter substrate study; assay type: in vitro ADME
P-gp, sequence (P08183 whole entry): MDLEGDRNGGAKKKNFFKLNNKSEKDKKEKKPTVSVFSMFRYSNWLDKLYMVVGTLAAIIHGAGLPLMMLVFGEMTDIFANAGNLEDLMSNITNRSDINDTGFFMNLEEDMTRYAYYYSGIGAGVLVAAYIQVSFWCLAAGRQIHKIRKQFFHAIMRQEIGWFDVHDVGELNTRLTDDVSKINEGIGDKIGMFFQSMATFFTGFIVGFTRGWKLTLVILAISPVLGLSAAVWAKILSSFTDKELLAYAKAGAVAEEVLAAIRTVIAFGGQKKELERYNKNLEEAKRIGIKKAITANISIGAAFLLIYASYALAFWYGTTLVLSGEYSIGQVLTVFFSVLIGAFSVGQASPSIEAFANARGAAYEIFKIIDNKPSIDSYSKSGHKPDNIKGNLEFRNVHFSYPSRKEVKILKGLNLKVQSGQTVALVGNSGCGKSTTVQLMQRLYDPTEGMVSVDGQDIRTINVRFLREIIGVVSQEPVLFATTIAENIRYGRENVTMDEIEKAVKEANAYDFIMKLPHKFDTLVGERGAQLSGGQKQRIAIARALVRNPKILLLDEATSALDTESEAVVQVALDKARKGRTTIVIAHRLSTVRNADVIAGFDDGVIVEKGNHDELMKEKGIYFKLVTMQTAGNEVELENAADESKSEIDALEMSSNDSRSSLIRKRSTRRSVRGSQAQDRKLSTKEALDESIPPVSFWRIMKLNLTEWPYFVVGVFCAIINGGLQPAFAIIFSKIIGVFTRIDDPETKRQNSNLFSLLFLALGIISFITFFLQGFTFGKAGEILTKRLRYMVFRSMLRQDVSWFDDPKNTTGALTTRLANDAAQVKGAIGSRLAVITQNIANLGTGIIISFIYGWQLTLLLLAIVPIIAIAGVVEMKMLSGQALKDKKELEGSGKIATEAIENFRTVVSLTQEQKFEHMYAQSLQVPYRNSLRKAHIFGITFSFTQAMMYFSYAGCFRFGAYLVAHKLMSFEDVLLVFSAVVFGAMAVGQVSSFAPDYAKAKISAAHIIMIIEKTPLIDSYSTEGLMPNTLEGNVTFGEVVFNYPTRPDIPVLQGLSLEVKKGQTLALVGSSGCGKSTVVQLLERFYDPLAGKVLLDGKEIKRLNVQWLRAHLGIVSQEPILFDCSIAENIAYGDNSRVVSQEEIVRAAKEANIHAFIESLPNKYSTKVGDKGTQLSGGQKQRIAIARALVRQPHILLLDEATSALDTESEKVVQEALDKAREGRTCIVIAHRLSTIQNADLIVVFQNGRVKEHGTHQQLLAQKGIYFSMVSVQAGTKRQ
Procedure: as §2

MATE1 = MATE1 (Homo sapiens, UniProt Q96FL8); assay: In vitro transporter inhibition; assay type: in vitro ADME
MATE1, sequence (Q96FL8 whole entry): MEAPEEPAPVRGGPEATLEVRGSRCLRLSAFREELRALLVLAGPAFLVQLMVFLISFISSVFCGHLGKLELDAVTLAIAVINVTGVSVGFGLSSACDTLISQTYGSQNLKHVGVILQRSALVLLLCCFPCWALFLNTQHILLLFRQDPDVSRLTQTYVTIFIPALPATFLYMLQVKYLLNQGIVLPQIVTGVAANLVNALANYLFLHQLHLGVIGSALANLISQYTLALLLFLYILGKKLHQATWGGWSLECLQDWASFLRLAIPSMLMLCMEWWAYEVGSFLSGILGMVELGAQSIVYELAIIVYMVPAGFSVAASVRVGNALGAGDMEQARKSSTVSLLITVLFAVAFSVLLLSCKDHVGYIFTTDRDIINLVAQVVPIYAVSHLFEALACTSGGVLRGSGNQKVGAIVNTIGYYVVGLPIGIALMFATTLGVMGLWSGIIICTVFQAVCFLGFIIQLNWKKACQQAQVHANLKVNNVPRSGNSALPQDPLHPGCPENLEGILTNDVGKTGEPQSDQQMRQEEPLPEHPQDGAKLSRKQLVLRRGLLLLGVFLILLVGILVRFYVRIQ
Description: (§3) Rimegepant is an inhibitor of OATP1B3, OCT2, and MATE1. No clinical drug interactions are expected for NURTEC ODT with these transporters at clinically relevant concentrations.

OAT1 = OAT1 (Homo sapiens, UniProt Q4U2R8); assay: In vitro transporter inhibition; assay type: in vitro ADME; details: at clinically relevant concentrations
OAT1, sequence (Q4U2R8 whole entry): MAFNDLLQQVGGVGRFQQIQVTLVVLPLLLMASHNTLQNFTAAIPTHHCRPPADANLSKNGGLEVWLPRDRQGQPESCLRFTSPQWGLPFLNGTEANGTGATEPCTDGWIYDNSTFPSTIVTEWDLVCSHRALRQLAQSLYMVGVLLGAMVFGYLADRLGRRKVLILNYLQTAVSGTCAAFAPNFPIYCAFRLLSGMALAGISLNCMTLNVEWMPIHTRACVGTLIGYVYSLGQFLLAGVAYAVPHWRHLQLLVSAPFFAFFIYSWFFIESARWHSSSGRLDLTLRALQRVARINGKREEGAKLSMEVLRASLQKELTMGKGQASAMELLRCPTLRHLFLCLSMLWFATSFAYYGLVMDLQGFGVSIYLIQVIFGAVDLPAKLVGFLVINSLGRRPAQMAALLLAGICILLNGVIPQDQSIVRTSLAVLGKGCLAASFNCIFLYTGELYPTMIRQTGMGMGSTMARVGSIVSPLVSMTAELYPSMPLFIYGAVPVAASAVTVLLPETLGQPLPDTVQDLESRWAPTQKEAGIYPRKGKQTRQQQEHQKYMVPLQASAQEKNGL
Description: as §3

OAT3 = OAT3 (Homo sapiens, UniProt Q8TCC7); assay: In vitro transporter inhibition; assay type: in vitro ADME
OAT3, sequence (Q8TCC7 whole entry): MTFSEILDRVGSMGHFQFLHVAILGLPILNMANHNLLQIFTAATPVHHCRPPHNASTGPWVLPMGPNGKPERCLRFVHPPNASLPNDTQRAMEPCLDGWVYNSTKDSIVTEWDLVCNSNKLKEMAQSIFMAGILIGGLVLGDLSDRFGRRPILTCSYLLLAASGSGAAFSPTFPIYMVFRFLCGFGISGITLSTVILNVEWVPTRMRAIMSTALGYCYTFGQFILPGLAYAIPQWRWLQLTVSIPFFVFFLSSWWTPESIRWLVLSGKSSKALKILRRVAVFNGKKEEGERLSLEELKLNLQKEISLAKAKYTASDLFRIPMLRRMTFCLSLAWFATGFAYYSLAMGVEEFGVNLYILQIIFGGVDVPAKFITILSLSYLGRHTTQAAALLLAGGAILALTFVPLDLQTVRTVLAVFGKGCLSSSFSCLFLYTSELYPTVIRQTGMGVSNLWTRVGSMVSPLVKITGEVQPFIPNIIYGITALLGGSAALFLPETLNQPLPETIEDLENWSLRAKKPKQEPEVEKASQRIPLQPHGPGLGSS
Description: as §3

OATP1B3 = OATP1B3 (Homo sapiens, UniProt Q9NPD5); assay: In vitro transporter inhibition; assay type: in vitro ADME
Description: as §3

OCT2 = OCT2 (Homo sapiens, UniProt O15244); assay: In vitro transporter inhibition; assay type: in vitro ADME
Description: as §3

MATE2-K = MATE2-K (Homo sapiens, UniProt Q86VL8); assay: In vitro transporter inhibition; assay type: in vitro ADME; details: at clinically relevant concentrations
rat micronucleus = assay: Rat micronucleus assay (in vivo)
Description: Rimegepant was negative in in vitro (bacterial reverse-mutation, chromosomal aberration in Chinese hamster ovary cells) and in vivo (rat micronucleus) assays.

male and female rats = assay: Fertility study, oral, male and female rats (0, 30, 60, or 150 mg/kg/day); assay type: in vivo, rat
rats = assay: Second fertility study, rats, lower doses (0, 5, 15, or 25 mg/kg/day); assay type: in vivo, rat
CYP3A4 [3] = biological target: T1, CYP3A4; assay: Dedicated drug interaction study with itraconazole (strong CYP3A4 inhibitor); assay type: in vivo; design: endogenous in cells; host or cells: in vivo, endogenous enzyme of the study subjects; details: 75 mg single dose with itraconazole at steady state

SMILES: N[C@@H]1c2cccnc2[C@H](OC(=O)N2CCC(n3c(=O)[nH]c4ncccc43)CC2)CC[C@H]1c1cccc(F)c1F [rimegepant, (5S,6S,9R)-5-amino-6-(2,3-difluorophenyl)-6,7,8,9-tetrahydro-5H-cyclohepta[b]pyridin-9-yl 4-(2-oxo-2,3-dihydro-1H-imidazo[4,5-b]pyridin-1-yl)-1-piperidinecarboxylate]
- plasma exposure (AUC) relative to humans at the MRHD of 75 mg/day (pregnant rats; at the no-effect dose (60 mg/kg/day)): approximately 45 times
- effects on embryofetal development (pregnant rats; highest dose tested (300 mg/kg/day), oral, associated with maternal toxicity): decreased fetal body weight and an increased incidence of fetal variations
- no-effect dose for adverse effects on embryofetal development (pregnant rats; oral, pregnant rats): 60 mg/kg/day
- resting blood pressure (healthy volunteers): No clinically relevant differences in resting blood pressure
- fraction unbound (Plasma protein binding): ~0.04
- difference in exposure vs normal renal function ([1]; severe renal impairment (CLcr 15-29 mL/min)): no clinically meaningful difference
- exposure higher than in normal subjects ([1]; single 75 mg dose, moderate renal impairment (CLcr 30-59 mL/min)): approximately 40%
- inhibition of CYP1A2 (CYP1A2): not an inhibitor
- inhibition of CYP2B6 (CYP2B6): not an inhibitor
- inhibition of CYP2C19 (CYP2C19): not an inhibitor
- inhibition of CYP2C9 (CYP2C9): not an inhibitor
- inhibition of CYP2D6 (CYP2D6): not an inhibitor
- inhibition of CYP3A4 (CYP3A4 [2]): weak inhibitor of CYP3A4 with time-dependent inhibition
- inhibition of UGT1A1 (UGT1A1): not an inhibitor
- substrate of BCRP (BCRP): substrate
- substrate of P-gp (P-gp): substrate
- inhibition of MATE1 (MATE1): inhibitor
- inhibition of OAT1 (OAT1): not an inhibitor
- inhibition of OAT3 (OAT3): weak inhibitor
- inhibition of OATP1B3 (OATP1B3): inhibitor
- inhibition of OCT2 (OCT2): inhibitor
- inhibition of MATE2-K (MATE2-K): not an inhibitor
- mutagenesis, rat micronucleus (rat micronucleus): negative
- fertility (male and female rats; highest dose tested (150 mg/kg/day)): reduced fertility at the highest dose tested
- uterine histopathology (male and female rats; oral 30, 60, or 150 mg/kg/day, prior to and during mating, females to GD 7): uterine atrophy at all doses
- effects on fertility, uterine histopathology, early embryonic development (rats; 0, 5, 15, or 25 mg/kg/day): no adverse effects on fertility, uterine histopathology, or early embryonic development
- plasma drug exposures (AUC) relative to humans at the MRHD (rats; at the no-effect dose (25 mg/kg/day)): approximately 15 times
- no-effect dose for impairment of fertility and early embryonic development (rats; rats): 25 mg/kg/day
- increase of rimegepant AUC (CYP3A4 [3]): 4 fold
- increase of rimegepant Cmax (CYP3A4 [3]): ~1.5 fold
